Laboratory results taken from US20230141783A1, “DIFFERENT FORMS OF 6-CHLORO-2-ETHYL-N-(4-(4-(4-(TRIFLUOROMETHOXY)PHENYL)PIPERIDINE-1-YL)BENZYL)IMIDAZO[1,2-A]PYRIDINE-3-CARBOXAMIDE” (priority 2019, published 2023).
Several values for one entry are separate records, joined by “and”; a condition that tells them apart may be missing. Equal values may be shown once. Entries after “also recorded” stand apart in the source; their conditions may differ. Read-outs that look alike come from different tables or passages of the source.

Columns and labels:
[1] = Exposing Forms A and C in 100% RH at RT (XRPD/DSC); type: physicochemical; conditions: 100% RH at RT for 6 days
From the text: Forms A and C were exposed in 100% RH environment at RT for 6 days; the solids were subsequently analyzed using DSC and XRPD.
In FIGS. 1 and 17, the XRPD of sample of Form A (previous obtained form EA and IPA/MEK) before and after 6 days exposure to 100% RH are sketched. FIGS. 19 and 20 show the DSC scan of the same samples after exposure. […] FIGS. 18 and 21 show the result of the same treatment for Form C.

[2] = DVS water absorption; type: physicochemical; conditions: 90% RH at RT
From the text: (FIGS. 4-5). It is the predominant form obtained in slurry experiments. Conversion from Form A to other XRPD patterns was mainly obtained from methanol (to Form C) or water (to pattern B) in the slurry medium. However, as it will be shown in further sections, Form C is converted to Form A upon re-slurry in the majority of other solvents (than methanol).
FIGS. 9 to 11 show XRPD, DSC, and TGA of a solid with Form C. […] The XRPD peaks of pattern C are sharper than those of Form A. Form C is the predominant form when methanol is used as the slurry medium. However, Form “C” is not a methanol solvate form of the di-tosylate salt. Many reactive crystallization experiments using different solvents generated Form C immediately after salt formation.

[3] = Stability under accelerated conditions 40° C./75% RH (HPLC); type: physicochemical; conditions: 40° C. and 75% RH up to 6 months
[4] = Long-term stability at 25° C./60% RH (HPLC); type: physicochemical; conditions: 25° C. and 60% RH for up to 60 months; ditosylate
[5] = Solubility estimation by aliquot addition and Clarity temperature cycling
[6] = Humidity stress of generated salts (75% relative humidity, 7 days, XRPD); type: physicochemical; conditions: test for deliquescence, sample stressed for several days under 75% RH
Method: Approximately 25 mg of generated salts of […] were added to vials and placed unsealed into a 75% relative humidity chamber (sealed cabinets with relative humidity conditions controlled by super-saturated salt solutions) at ambient temperature for 7 days prior to analysis by XRPD.

[7] = pH 4.5 buffer, pull time 23 hrs
[8] = pH 6.8 buffer, pull time 22.5 hrs
[9] = pH 7.5 buffer, pull time 72 hrs

CCc1nc2ccc(Cl)cn2c1C(=O)NCc1ccc(N2CCC(c3ccc(OC(F)(F)F)cc3)CC2)cc1.Cc1ccc(S(=O)(=O)O)cc1.Cc1ccc(S(=O)(=O)O)cc1 [Ditosylate]
HPLC concentration based on avg std (pH 1, client result): 1.45 (client result) mg/ml

CCc1nc2ccc(Cl)cn2c1C(=O)NCc1ccc(N2CCC(c3ccc(OC(F)(F)F)cc3)CC2)cc1.O=P(O)(O)O [phosphate salt, 6-chloro-2-ethyl-N-(4-(4-(4-(trifluoromethoxy)phenyl)piperidine-1-yl)benzyl)imidazo[1,2-a]pyridine-3-carboxamide mono-phosphate]
solid form after slurrying in buffer (XRPD) (all buffers tested (pH 1, 4.5, 6.8, 7.5)): not stable
solubility in comparison to the di-tosylate salt (low pH, especially around pH1): better solubility
solid form after slurrying in buffer (XRPD) (pH 1 buffer, listed as Phosphate salt, mono-phosphate): converted to HCl Type 56
solid form after slurrying in buffer (XRPD) (pH 1 buffer, mono-phosphate): converted to a new HCl salt, Type 56
solid form after slurrying in buffer (XRPD) (pH 4.5 and above): converted to freebase

CCc1nc2ccc(Cl)cn2c1C(=O)NCc1ccc(N2CCC(c3ccc(OC(F)(F)F)cc3)CC2)cc1.Cl [Type 36]
solid form after slurrying in buffer (XRPD) (all buffers tested (pH 1, 4.5, 6.8, 7.5), listed as Type 36 HCl salt): converted to new type HCl salt Type 56

CCc1nc2ccc(Cl)cn2c1C(=O)NCc1ccc(N2CCC(c3ccc(OC(F)(F)F)cc3)CC2)cc1.Cl [HCl salt, Type 36]
XRPD of solid isolated after pH solubility experiment (pH 1 buffer, pull time 24 hrs): T56 HCl salt crystalline
HPLC concentration based on avg std [7]: 0.000323 mg/mL and 0.000307 mg/mL
XRPD of solid isolated after pH solubility experiment [7]: T56 HCl salt crystalline
HPLC concentration based on avg std [8]: 0.000285 mg/mL and 0.000277 mg/mL
XRPD of solid isolated after pH solubility experiment [8]: T56 HCl salt crystalline
HPLC concentration based on avg std [9]: 3.28e-05 mg/mL and 3.57e-05 mg/mL
XRPD of solid isolated after pH solubility experiment [9]: T56 HCl salt crystalline

CCc1nc2ccc(Cl)cn2c1C(=O)NCc1ccc(N2CCC(c3ccc(OC(F)(F)F)cc3)CC2)cc1.Cl [HCl salt, 6-chloro-2-ethyl-N-(4-(4-(4-(trifluoromethoxy)phenyl)piperidine-1-yl)benzyl)imidazo[1,2-a]pyridine-3-carboxamide mono-hydrochloride]
solid form after slurrying in buffer (XRPD) (all buffers tested (pH 1, 4.5, 6.8, 7.5), listed as HCl, mono-hydrochloride): Type 56
solid form after slurrying in buffer (XRPD) (all buffers tested (pH 1, 4.5, 6.8, 7.5), mono-hydrochloride): no conversion to the free base was observed
solubility in comparison to the di-tosylate salt (pH 1): better solubility

CCc1nc2ccc(Cl)cn2c1C(=O)NCc1ccc(N2CCC(c3ccc(OC(F)(F)F)cc3)CC2)cc1.Cc1ccc(S(=O)(=O)O)cc1.Cc1ccc(S(=O)(=O)O)cc1 [Form C]
crystalline form after exposure to 100% RH [1]: maintains its crystalline form; also recorded: crystal structure does not change
water absorption (DVS) [2]: less than 0.3%

CCc1nc2ccc(Cl)cn2c1C(=O)NCc1ccc(N2CCC(c3ccc(OC(F)(F)F)cc3)CC2)cc1.Cl [Type 56]
solubility (pH 1 buffer, room temperature): ~ 5.58 mg/mL

CCc1nc2ccc(Cl)cn2c1C(=O)NCc1ccc(N2CCC(c3ccc(OC(F)(F)F)cc3)CC2)cc1.Cc1ccc(S(=O)(=O)O)cc1.Cc1ccc(S(=O)(=O)O)cc1 [6-chloro-2-ethyl-N-(4-(4-(4-(trifluoromethoxy)phenyl)piperidine-1-yl)benzyl)imidazo[1,2-a]pyridine-3-carboxamide ditosylate]
stability under accelerated conditions [3]: stable
long-term storage stability [4]: stable

CCc1nc2ccc(Cl)cn2c1C(=O)NCc1ccc(N2CCC(c3ccc(OC(F)(F)F)cc3)CC2)cc1.Cc1ccc(S(=O)(=O)O)cc1 [pTSA salt, Type 20]
HPLC concentration based on avg std (pH 1 buffer, pull time 24 hrs): 0.33 mg/mL and 0.32 mg/mL
XRPD of solid isolated after pH solubility experiment (pH 1 buffer, pull time 24 hrs): p-TSA salt T20 crystalline
HPLC concentration based on avg std [7]: 0.000366 mg/mL and 0.000333 mg/mL
XRPD of solid isolated after pH solubility experiment [7]: Type 28 disordered
HPLC concentration based on avg std [8]: 0.000312 mg/mL and 0.000307 mg/mL
XRPD of solid isolated after pH solubility experiment [8]: Type 28 disordered
XRPD of solid isolated after pH solubility experiment [9]: Type 28 disordered

CCc1nc2ccc(Cl)cn2c1C(=O)NCc1ccc(N2CCC(c3ccc(OC(F)(F)F)cc3)CC2)cc1.O=P(O)(O)O [Phosphate salt, Type 37]
XRPD of solid isolated after pH solubility experiment (pH 1): T56 HCl salt v. disordered
HPLC concentration based on avg std (pH 1 buffer, pull time 24 hrs): 5.33 mg/mL and 5.64 mg/mL
XRPD of solid isolated after pH solubility experiment (pH 4.5): Type 28 disordered
HPLC concentration based on avg std [7]: 0.000384 mg/mL and 0.000336 mg/mL
XRPD of solid isolated after pH solubility experiment (pH 6.8): Type 28 disordered
HPLC concentration based on avg std [8]: 0.00028 mg/mL and 0.000297 mg/mL
XRPD of solid isolated after pH solubility experiment (pH 7.5): Type 28 disordered
HPLC concentration based on avg std [9]: 6.39e-05 mg/mL and 4.1e-05 mg/mL

CCc1nc2ccc(Cl)cn2c1C(=O)NCc1ccc(N2CCC(c3ccc(OC(F)(F)F)cc3)CC2)cc1.Cc1ccc(S(=O)(=O)O)cc1.Cc1ccc(S(=O)(=O)O)cc1 [Pat A]
Aq. Sol ([5]; approximate values by aliquot addition on unbuffered water): <0.38 mg/mL
Aq. Sol ([5]; approximate values measured by aliquot addition in unbuffered water): <0.38 mg/mL
RH stress (20C/75RH) [6]: stable
RH stress (20C/75RH) ([6]; 20C): stable

CCc1nc2ccc(Cl)cn2c1C(=O)NCc1ccc(N2CCC(c3ccc(OC(F)(F)F)cc3)CC2)cc1 [Type 28]
solubility (pH 4.5 and above): < 0.00037 mg/mL
